Assay results: US6673938B1, “Substituted pyridine herbicides” (Syngenta Participations AG, priority 1998, dated 2004)

Assays:
[1] = system: Monocotyledonous and dicotyledonous test plants; test: Post-emergence herbicidal action; format: in vivo; settings: evaluated after approximately 18 days; for Post-emergence action, Ipomoea / Post-emergence action, Lolium / Post-emergence action, Setaria / Post-emergence action, Sinapis / Post-emergence action, Solanum / Post-emergence action, Stellaria: 2000 g/ha, sprayed in 4- to 6-leaf stage, nine-step scale; for Post-emergence action: Abutilon (score, nine-step scale) / Post-emergence action: Chenop. (score, nine-step scale) / Post-emergence action: Digitaria (score, nine-step scale) / Post-emergence action: Echino. (score, nine-step scale) / Post-emergence action: Ipopur. (score, nine-step scale) / Post-emergence action: Panicum (score, nine-step scale) / Post-emergence action: Xanth. (score, nine-step scale): 250 g/ha, sprayed at 4- to 6-leaf stage
Outline: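 Greenhouse plants sprayed at the 4- to 6-leaf stage with test substance as wettable-powder suspension or emulsion-concentrate emulsion, 2 kg or 250 g a.i./ha in 500 l water/ha. Scored after about 18 days on a nine-step scale (1=complete damage, 9=no effect).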

[2] = system: Monocotyledonous and dicotyledonous test plants; test: Herbicidal action before emergence of the plants (pre-emergence action); format: in vivo; settings: evaluated after 3 weeks, nine-step scale; for pre-emergence action, Cyperus / pre-emergence action, Ipomoea / pre-emergence action, Setaria / pre-emergence action, Sinapis / pre-emergence action, Solanum / pre-emergence action, Stellaria: 2000 g/ha; for Pre-emergence action, Abutilon / Pre-emergence action, Amaranthus / Pre-emergence action, Chenop. / Pre-emergence action, Digitaria / Pre-emergence action, Echino. / Pre-emergence action, Panicum: 250 g/ha
Outline: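 Sprayed onto soil immediately after sowing as WP suspension or EC emulsion at 2 kg or 250 g a.i./ha (500 l water/ha). Greenhouse growth for 3 weeks, then scored on a nine-step scale (1 = complete damage, 9 = no effect).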

| SMILES | Post-emergence action, Ipomoea [1] | Post-emergence action, Lolium [1] | Post-emergence action, Setaria [1] | Post-emergence action, Sinapis [1] | Post-emergence action, Solanum [1] | Post-emergence action, Stellaria [1] | melting point | pre-emergence action, Cyperus [2] | pre-emergence action, Ipomoea [2] | pre-emergence action, Setaria [2] | pre-emergence action, Sinapis [2] | pre-emergence action, Solanum [2] | pre-emergence action, Stellaria [2] | further results |
| --- | --- | --- | --- | --- | --- | --- | --- | --- | --- | --- | --- | --- | --- | --- |
| Cc1nc(C(F)(F)F)ccc1C(=O)C1=C(O)C(C)(C)CCC1=O [Compound A2-B24, 3-Hydroxy-4,4-dimethyl-2-(2-methyl-6-trifluoromethylpyridine-3-carbonyl)cyclohex-2-enone] | 1 | 2 | 2 | 1 | 2 | 2 | 75 to 76 °C | 1 | 1 | 1 | 2 | 1 | 1 |  |
| Cc1nc(C(F)(F)F)ccc1C(=O)C1=C(S(=O)(=O)c2ccccc2)CCCC1=O [Compound A2-B1104, 3-Benzenesulfonyl-2-(2-methyl-6-trifluoromethylpyridine-3-carbonyl)cyclohex-2-enone] |  |  |  |  |  |  | 165 to 167 °C |  |  |  |  |  |  |  |
| Cc1nc(C(F)(F)F)ccc1C(=O)C1=C(O)C(C)(C)C(=O)C(C)(C)C1=O [Compound A2-B354, 5-hydroxy-2,2,6,6-tetramethyl-4-(2-methyl-6-trifluoromethylpyridine-3-carbonyl)cyclohex-4-ene-1,3-dione] | 2 | 2 | 2 | 2 | 2 | 2 | 139 to 140 °C | 1 | 1 | 1 | 1 | 1 | 2 |  |
| Cc1nc(C(F)(F)F)ccc1C(=O)C1=C(Sc2ccccc2)CCCC1=O [Compound A2-B1102, 2-(2-methyl-6-trifluoromethylpyridine-3-carbonyl)-3-phenylsulfanylcyclohex-2-enone] |  |  |  |  |  |  | 124 to 125 °C |  |  |  |  |  |  |  |
| COC(=O)C1(C)CCC(=O)C(C(=O)c2ccc(C(F)(F)Cl)nc2C)=C1O (centres unmarked) [Compound A94-B34, methyl 3-[6-(chlorodifluoromethyl)-2-methylpyridine-3-carbonyl]-2-hydroxy-1-methyl-4-oxocyclohex-2-enecarboxylate] |  |  |  |  |  |  | 108 to 110 °C |  |  |  |  |  |  |  |
| Cc1nc(C(F)(F)F)ccc1C(=O)C1=C(Cl)C(C)(C)C(=O)C(C)(C)C1=O [Compound A2-B1105, 5-Chloro-2,2,6,6-tetramethyl-4-(2-methyl-6-trifluoromethylpyridine-3-carbonyl)cyclohex-4-ene-1,3-dione] |  |  |  |  |  |  | 119 °C |  |  |  |  |  |  |  |
| Cc1nc(C(F)(F)F)ccc1C(=O)C1=C(O)C(C)(S(C)(=O)=O)C2CC2C1=O (centres unmarked) [Compound A2-D115] | 1 | 2 | 1 | 1 | 1 | 1 |  | 3 | 3 | 2 | 2 | 2 | 3 |  |
| CCOC(=O)C1C(O)=C(C(=O)c2ccc(C(F)(F)F)nc2C)C(=O)CC1C (centres unmarked) [Compound A2-B145] |  |  |  |  |  |  |  |  |  |  |  |  |  | Post-emergence action: Abutilon (score, nine-step scale) [1]: 3; Post-emergence action: Chenop. (score, nine-step scale) [1]: 1; Post-emergence action: Digitaria (score, nine-step scale) [1]: 2; Post-emergence action: Echino. (score, nine-step scale) [1]: 2; Post-emergence action: Ipopur. (score, nine-step scale) [1]: 3; Post-emergence action: Panicum (score, nine-step scale) [1]: 2; Post-emergence action: Xanth. (score, nine-step scale) [1]: 3; Pre-emergence action, Abutilon [2]: 2; Pre-emergence action, Amaranthus [2]: 3; Pre-emergence action, Chenop. [2]: 1; Pre-emergence action, Digitaria [2]: 2; Pre-emergence action, Echino. [2]: 4; Pre-emergence action, Panicum [2]: 2 |
| Cc1c(C(=O)C2=C(Cl)C(C)(C)C(=O)C(C)(C)C2=O)ccc(C(F)(F)F)[n+]1[O-] [Compound A1210-B1105, 5-Chloro-2,2,6,6-tetramethyl-4-(2-methyl-1-oxy-6-trifluoromethylpyridine-3-carbonyl)cyclohex-4-ene-1,3-dione] |  |  |  |  |  |  |  |  |  |  |  |  |  | Post-emergence action: Abutilon (score, nine-step scale) [1]: 2; Post-emergence action: Chenop. (score, nine-step scale) [1]: 1; Post-emergence action: Digitaria (score, nine-step scale) [1]: 2; Post-emergence action: Echino. (score, nine-step scale) [1]: 3; Post-emergence action: Ipopur. (score, nine-step scale) [1]: 2; Post-emergence action: Panicum (score, nine-step scale) [1]: 1; Post-emergence action: Xanth. (score, nine-step scale) [1]: 2; Pre-emergence action, Abutilon [2]: 1; Pre-emergence action, Amaranthus [2]: 4; Pre-emergence action, Chenop. [2]: 1; Pre-emergence action, Digitaria [2]: 3; Pre-emergence action, Echino. [2]: 2; Pre-emergence action, Panicum [2]: 2 |
| CC1(C)C(=O)C(C(=O)c2ccc(C(F)(F)F)nc2CBr)=C(Cl)C(C)(C)C1=O [Compound A1029-B1105, 4-(2-Bromomethyl-6-trifluoromethylpyridine-3-carbonyl)-5-chloro-2,2,6,6-tetramethylcyclohex-4-ene-1,3-dione] |  |  |  |  |  |  | 94.5 to 95 °C |  |  |  |  |  |  |  |
| Cc1nc(C(F)(F)F)ccc1C(=O)C1=C(O)C(C)CC2(CC2)C1=O (centres unmarked) [Compound A2-C2] | 2 | 1 | 1 | 1 | 1 | 1 |  | 2 | 3 | 1 | 1 | 1 | 1 |  |
| CCc1nc(C(F)(F)F)ccc1C(=O)C1=C(O)CCCC1=O [Compound A3-B1] | 1 | 3 | 2 | 1 | 1 | 2 |  | 2 | 2 | 4 | 2 | 3 | 2 |  |
| CCOC(=O)OCc1nc(C(F)(F)F)ccc1C(=O)C1=C(O)C(C)(C)C(=O)C(C)(C)C1=O [Compound A1208-B354] |  |  |  |  |  |  |  |  |  |  |  |  |  | Post-emergence action: Abutilon (score, nine-step scale) [1]: 1; Post-emergence action: Chenop. (score, nine-step scale) [1]: 2; Post-emergence action: Digitaria (score, nine-step scale) [1]: 4; Post-emergence action: Echino. (score, nine-step scale) [1]: 2; Post-emergence action: Ipopur. (score, nine-step scale) [1]: 2; Post-emergence action: Panicum (score, nine-step scale) [1]: 3; Post-emergence action: Xanth. (score, nine-step scale) [1]: 2; Pre-emergence action, Abutilon [2]: 1; Pre-emergence action, Amaranthus [2]: 1; Pre-emergence action, Chenop. [2]: 1; Pre-emergence action, Digitaria [2]: 1; Pre-emergence action, Echino. [2]: 1; Pre-emergence action, Panicum [2]: 1 |
| CCC1CC(C)(C)C(=O)C(C(=O)c2ccc(C(F)(F)F)nc2C)=C1O (centres unmarked) [Compound A2-B1089] | 1 | 2 | 2 | 1 | 1 | 2 |  | 1 | 2 | 2 | 2 | 1 | 2 |  |
| COCc1nc(C(F)(F)F)ccc1C(=O)C1=C(O)C(C)(C)OCC1=O [Compound A8-B552] |  |  |  |  |  |  |  |  |  |  |  |  |  | Post-emergence action: Abutilon (score, nine-step scale) [1]: 2; Post-emergence action: Chenop. (score, nine-step scale) [1]: 2; Post-emergence action: Digitaria (score, nine-step scale) [1]: 3; Post-emergence action: Echino. (score, nine-step scale) [1]: 3; Post-emergence action: Ipopur. (score, nine-step scale) [1]: 2; Post-emergence action: Panicum (score, nine-step scale) [1]: 2; Post-emergence action: Xanth. (score, nine-step scale) [1]: 2; Pre-emergence action, Abutilon [2]: 1; Pre-emergence action, Amaranthus [2]: 4; Pre-emergence action, Chenop. [2]: 1; Pre-emergence action, Digitaria [2]: 3; Pre-emergence action, Echino. [2]: 4; Pre-emergence action, Panicum [2]: 2 |
